Assays:
[1] = target: T1, Mitogen-activated protein kinase kinase kinase 7 (Homo sapiens) (UniProt O43318); test: Selectivity interaction (KinomeScan (DiscoverX)) EUB0000666a MAP3K7; details: at 10 µM
T1 sequence (whole entry): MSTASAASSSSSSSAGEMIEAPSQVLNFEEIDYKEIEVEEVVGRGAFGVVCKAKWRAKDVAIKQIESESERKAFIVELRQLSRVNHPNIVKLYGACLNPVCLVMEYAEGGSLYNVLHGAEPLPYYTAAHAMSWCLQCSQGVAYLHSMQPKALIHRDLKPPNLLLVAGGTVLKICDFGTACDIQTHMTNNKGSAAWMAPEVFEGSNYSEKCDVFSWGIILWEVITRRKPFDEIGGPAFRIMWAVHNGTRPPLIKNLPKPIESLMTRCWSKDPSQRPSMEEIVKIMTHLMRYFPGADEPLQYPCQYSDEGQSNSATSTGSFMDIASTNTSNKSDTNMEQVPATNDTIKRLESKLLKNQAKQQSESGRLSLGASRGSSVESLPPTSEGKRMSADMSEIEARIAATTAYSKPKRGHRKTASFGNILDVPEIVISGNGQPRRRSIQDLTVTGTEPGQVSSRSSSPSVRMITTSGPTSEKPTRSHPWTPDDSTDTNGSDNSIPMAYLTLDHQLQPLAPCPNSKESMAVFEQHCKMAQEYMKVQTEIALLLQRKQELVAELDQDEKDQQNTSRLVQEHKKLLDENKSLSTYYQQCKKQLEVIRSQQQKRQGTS

[2] = target: D(4) dopamine receptor (Homo sapiens) (UniProt P21917); test: Selectivity interaction (Eurofins CEREP Diversity Profile (receptors and ion channels)) EUB0000279b DRD4; details: at 10 µM
D(4) dopamine receptor (Homo sapiens), sequence (P21917 whole entry): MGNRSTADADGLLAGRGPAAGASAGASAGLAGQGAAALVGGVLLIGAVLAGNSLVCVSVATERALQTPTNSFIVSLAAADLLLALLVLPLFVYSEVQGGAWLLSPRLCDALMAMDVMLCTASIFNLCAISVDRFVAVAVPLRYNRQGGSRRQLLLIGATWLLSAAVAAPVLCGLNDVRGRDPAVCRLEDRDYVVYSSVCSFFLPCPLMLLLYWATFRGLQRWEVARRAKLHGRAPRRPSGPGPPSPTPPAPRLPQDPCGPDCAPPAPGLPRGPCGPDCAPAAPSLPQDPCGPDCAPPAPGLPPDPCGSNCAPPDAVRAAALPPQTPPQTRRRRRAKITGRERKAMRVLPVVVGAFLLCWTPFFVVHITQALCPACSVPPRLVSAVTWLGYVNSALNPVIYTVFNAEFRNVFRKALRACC

[3] = target: T2, Serine/threonine-protein kinase 3 (Homo sapiens) (UniProt Q13188); test: Selectivity interaction (ActivX KiNativ screen (kinase selectivity in THP-1 cell lysates)) EUB0000639a STK3; format: subcellular; details: lysate
T2 sequence (whole entry): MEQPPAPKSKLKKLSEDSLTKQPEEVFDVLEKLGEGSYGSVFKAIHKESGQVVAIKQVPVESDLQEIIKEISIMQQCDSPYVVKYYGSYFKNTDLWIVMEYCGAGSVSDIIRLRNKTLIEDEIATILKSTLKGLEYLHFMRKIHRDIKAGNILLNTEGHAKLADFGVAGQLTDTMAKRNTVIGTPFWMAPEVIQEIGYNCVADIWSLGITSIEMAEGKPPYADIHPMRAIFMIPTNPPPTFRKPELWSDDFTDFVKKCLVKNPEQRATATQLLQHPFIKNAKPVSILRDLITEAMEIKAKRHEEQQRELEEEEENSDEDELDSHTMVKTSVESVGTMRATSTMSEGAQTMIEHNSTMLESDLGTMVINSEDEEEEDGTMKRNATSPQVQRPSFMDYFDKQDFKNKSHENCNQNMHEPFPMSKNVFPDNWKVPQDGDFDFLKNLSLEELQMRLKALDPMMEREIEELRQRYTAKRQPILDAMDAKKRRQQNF

[4] = target: T3, Ephrin type-B receptor 6 (Homo sapiens) (UniProt O15197); test: Selectivity interaction (Ambit KINOMEscan and KiNATiv profiling in Jurkat cells) EUB0000090b EPHB6; format: cell-based; details: at 1 µM
T3 sequence (whole entry): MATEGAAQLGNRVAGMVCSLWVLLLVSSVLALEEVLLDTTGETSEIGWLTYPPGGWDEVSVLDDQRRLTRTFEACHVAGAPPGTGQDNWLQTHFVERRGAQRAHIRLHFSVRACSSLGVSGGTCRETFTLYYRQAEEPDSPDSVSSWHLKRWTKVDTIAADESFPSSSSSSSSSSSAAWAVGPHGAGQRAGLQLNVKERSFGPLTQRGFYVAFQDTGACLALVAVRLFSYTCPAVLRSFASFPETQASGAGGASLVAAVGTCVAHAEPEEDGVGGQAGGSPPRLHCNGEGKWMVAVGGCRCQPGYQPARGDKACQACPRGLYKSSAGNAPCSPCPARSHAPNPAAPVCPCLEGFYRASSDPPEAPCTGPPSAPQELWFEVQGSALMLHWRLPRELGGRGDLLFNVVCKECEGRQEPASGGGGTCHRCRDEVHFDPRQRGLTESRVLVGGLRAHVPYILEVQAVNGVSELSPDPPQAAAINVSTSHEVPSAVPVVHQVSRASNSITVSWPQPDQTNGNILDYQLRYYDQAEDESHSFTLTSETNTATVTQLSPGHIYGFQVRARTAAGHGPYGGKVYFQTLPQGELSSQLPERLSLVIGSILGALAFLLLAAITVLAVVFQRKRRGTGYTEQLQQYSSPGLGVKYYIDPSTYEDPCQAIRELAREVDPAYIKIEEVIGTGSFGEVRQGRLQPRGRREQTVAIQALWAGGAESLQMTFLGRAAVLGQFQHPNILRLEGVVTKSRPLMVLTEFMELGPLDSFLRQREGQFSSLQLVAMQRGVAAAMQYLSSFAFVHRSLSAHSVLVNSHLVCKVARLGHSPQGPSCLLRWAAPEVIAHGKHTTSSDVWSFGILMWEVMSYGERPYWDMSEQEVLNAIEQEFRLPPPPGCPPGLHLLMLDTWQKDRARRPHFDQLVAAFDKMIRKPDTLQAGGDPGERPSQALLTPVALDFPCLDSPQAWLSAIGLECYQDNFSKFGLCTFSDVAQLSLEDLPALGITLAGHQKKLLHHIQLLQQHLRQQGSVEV

[5] = target: Vascular endothelial growth factor receptor 2 (Homo sapiens, UniProt P35968); test: Selectivity interaction (KinomeScan (DiscoverX)) EUB0000618a KDR; details: at 10 µM
Vascular endothelial growth factor receptor 2, sequence (P35968 whole entry, canonical isoform): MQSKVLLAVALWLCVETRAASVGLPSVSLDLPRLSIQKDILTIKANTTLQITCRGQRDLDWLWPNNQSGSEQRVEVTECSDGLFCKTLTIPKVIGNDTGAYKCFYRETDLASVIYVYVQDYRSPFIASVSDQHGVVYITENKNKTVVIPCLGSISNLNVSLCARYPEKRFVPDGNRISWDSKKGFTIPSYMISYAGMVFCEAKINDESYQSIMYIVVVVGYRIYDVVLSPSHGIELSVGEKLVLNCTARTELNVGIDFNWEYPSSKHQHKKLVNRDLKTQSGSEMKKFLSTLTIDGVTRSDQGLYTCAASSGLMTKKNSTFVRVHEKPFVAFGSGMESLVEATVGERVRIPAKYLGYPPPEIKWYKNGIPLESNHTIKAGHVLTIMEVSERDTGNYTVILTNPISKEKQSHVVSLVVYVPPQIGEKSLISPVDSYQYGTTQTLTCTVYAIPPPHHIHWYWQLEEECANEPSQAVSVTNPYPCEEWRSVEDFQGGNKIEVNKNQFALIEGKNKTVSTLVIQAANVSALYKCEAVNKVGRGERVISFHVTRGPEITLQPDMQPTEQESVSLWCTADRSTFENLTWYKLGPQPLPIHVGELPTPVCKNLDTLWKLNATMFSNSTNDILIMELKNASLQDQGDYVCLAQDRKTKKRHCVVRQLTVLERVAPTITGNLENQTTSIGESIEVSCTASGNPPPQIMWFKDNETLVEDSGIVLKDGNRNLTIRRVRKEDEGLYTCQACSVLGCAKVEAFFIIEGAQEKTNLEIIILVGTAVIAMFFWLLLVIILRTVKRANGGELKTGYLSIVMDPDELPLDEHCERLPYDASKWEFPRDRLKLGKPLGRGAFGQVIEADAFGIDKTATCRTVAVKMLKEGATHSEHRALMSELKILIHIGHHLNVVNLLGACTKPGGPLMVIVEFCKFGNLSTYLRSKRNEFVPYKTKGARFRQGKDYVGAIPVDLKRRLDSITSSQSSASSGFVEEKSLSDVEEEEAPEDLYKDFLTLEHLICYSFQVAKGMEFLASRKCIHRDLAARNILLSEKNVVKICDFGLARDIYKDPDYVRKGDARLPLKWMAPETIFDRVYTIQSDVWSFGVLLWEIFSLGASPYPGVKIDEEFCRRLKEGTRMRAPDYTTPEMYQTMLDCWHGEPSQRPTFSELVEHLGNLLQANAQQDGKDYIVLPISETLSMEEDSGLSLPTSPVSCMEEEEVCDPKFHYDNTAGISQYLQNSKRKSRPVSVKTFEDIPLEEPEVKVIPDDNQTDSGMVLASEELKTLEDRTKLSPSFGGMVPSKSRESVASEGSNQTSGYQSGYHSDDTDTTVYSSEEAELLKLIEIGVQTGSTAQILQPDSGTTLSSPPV

[6] = target: Casein kinase I isoform epsilon (Homo sapiens, UniProt P49674); test: Selectivity interaction (KinomeScan (DiscoverX)) EUB0000618a CSNK1E; details: at 10 µM
Casein kinase I isoform epsilon, sequence (P49674 whole entry, looked up, canonical isoform): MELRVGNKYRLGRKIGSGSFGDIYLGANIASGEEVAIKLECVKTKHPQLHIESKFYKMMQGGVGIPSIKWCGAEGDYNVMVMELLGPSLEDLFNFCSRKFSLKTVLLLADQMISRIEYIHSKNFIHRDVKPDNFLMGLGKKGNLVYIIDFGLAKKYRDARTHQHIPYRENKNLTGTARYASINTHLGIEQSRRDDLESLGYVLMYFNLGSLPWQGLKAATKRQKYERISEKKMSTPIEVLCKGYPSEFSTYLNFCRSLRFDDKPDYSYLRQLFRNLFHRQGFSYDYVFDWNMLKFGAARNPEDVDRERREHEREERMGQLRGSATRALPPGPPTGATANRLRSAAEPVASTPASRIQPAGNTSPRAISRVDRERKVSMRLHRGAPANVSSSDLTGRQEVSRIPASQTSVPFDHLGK

O=C(NOC[C@H](O)CO)c1ccc(F)c(F)c1Nc1ccc(I)cc1F
% of control [1]: 75%

CC(=O)c1cc(-c2ccccc2OCC2CC2)c2ncccn12
% of control [2]: 103%

CC[C@@H]1[C@H](F)C(=O)N[C@@H]1COc1nccc2cc(C(N)=O)c(OC)cc12 [ZIMLOVISERTIB]
% of inhibition ([3]; at 0.01 µM): -6.8%
% of inhibition ([3]; at 0.04 µM): -5.9%
% of inhibition ([3]; at 0.2 µM): -9.3%
% of inhibition ([3]; at 1 µM): 4%
% of inhibition ([3]; at 5 µM): 11.1%

CN(C)C/C=C/C(=O)Nc1ccc(C(=O)N2CCCC(Nc3ncc(Cl)c(-c4c[nH]c5ccccc45)n3)C2)cc1 (stereo not given)
% of control [4]: 76%

O[C@H]1CC[C@H](Nc2ncc3nc(Nc4c(F)cc(F)cc4F)n([C@H]4CCOC4)c3n2)CC1
% of control [5]: 100%
% of control [6]: 11%
